Experimental data taken from patent publication US4000147A, “Anhydro-2-mercapto-1,3,4-thiadiazolium hydroxides” (BASF Aktiengesellschaft, priority 1974, dated 1976).
Like-named read-outs stand apart in the source and are kept apart here.

Experiments:
[1] = system: clonic cramps caused by Pentetrazol; test: anti-convulsive action against clonic spasms caused by Pentetrazol (60 mg/kg s.c.), inclined screen (Table 2); type: in vivo, female Swiss mice; conditions: Mus musculus, mice, oral, 30 minutes before s.c. 60 mg/kg Pentetrazol
Procedure: As a pharmacological test of the anti-convulsive action against clonic spasms caused by Pentetrazol, the test substances were administered orally to groups of from 8 to 10 female Swiss mice weighing from 20 to 25 g, 30 minutes before subcutaneous administration of 60 mg/kg of Pentetrazol.
In the untreated animals, this dose of Pentetrazol caused clonic cramps, as a result of which the mice slid off an inclined screen.
Anti-convulsive agents prevent the cramps and the sliding off the screen, the degree of prevention depending on the dose. The ED50 was taken to be the dose after administration of which 50% of the treated animals remained on the screen.
^1) Action against clonic cramps caused by Pentetrazol in mice. Oral
administration 30 minutes before subcutaneous administration of 60 mg/kg

[2] = acute toxicity, intraperitoneal (Table 2); conditions: mouse, in vivo, ip, mice, approximate values
Description: ^2) Mice. Intraperitoneal administration. Approximate values

[3] = system: maximum Pentetrazol-induced extension; test: maximum tonic extension spasm after subcutaneous administration of 121 mg/kg of Pentetrazol (Table 3); type: in vivo, mice; conditions: for ED50: Mus musculus, read-out: Maximum Pentetrazol-induced extension, ED50
[4] = system: minimum Pentetrazol-induced cramp; test: minimum clonic cramp after subcutaneous administration of 70 mg/kg of Pentetrazol (Table 3); type: in vivo, mice; conditions: for ED50: Mus musculus, 0.75 h, read-out: Minimum Pentetrazol-induced cramp, ED50
maximum electric shock = test: maximum tonic electro-induced cramp (Table 3); type: in vivo, mice; conditions: for ED50: Mus musculus, read-out: Maximum electric shock, ED50
in vivo = conditions: for LD50: mouse, in vivo
Procedure: The comparative experiments in Table 3 were carried out with anhydro-2-mercapto-4-methyl-5-(3'-chlorophenyl)-1,3,4-thiadiazolium hydroxide, referred to as substance A in the Table and in the subsequent text.

[5] = mice, oral, 121 mg/kg Pentetrazol s.c.
[6] = mice, oral, 70 mg/kg Pentetrazol s.c., observed 45 minutes after Pentetrazol
[7] = mice, oral, tonic cramps induced by electric shock

## C[n+]1nc([S-])sc1-c1ccccc1F
[1]
  ED50: 10 mg/kg
[2]
  LD50: > 1000 mg/kg

## C[n+]1nc([S-])sc1-c1cccc(F)c1
[1]
  ED50: 2.2 mg/kg
[2]
  LD50: 1000 mg/kg

## C[n+]1nc([S-])sc1-c1ccc(F)cc1
[1]
  ED50: 2.2 mg/kg
[2]
  LD50: > 1000 mg/kg

## C[n+]1nc([S-])sc1-c1ccc(Br)cc1
[1]
  ED50: 46 mg/kg
[2]
  LD50: > 1000 mg/kg

## CCC[n+]1nc([S-])sc1-c1ccc(Cl)cc1
[1]
  ED50: 32 mg/kg
[2]
  LD50: 681 mg/kg

## CCC[n+]1nc([S-])sc1-c1ccccc1
[1]
  ED50: 22 mg/kg
[2]
  LD50: 68.1 mg/kg

## C[n+]1nc([S-])sc1-c1cccc(C(F)(F)F)c1
[1]
  ED50: 0.46 mg/kg
[2]
  LD50: 681 mg/kg

## CCC1(c2ccccc2)C(=O)NC(=O)NC1=O [Phenobarbital]
[3]; po
  ED50: 22 mg/kg
[3]; in words
  activity in tonic cramp induced by Pentetrazol, relative to substance A: about twice as active
[4]; po
  ED50: 30 mg/kg
Maximum electric shock; po
  ED50: 11 mg/kg
Maximum electric shock; in words
  activity in cramp induced by electric shock, relative to substance A: about twice as active
In vivo
  LD50: 320 mg/kg

## O=C1NC(=O)C(c2ccccc2)(c2ccccc2)N1 [Phenytoin]
[3]; [5]
  ED50: 22 mg/kg
[4]; in words
  activity against clonic spasms induced by Pentetrazol: inactive
[4]; [6]
  Minimum Pentetrazol-induced cramp, ED50: inactive
Maximum electric shock; [7]
  ED50: 8 mg/kg

## C[n+]1nc([S-])sc1-c1cccc(Cl)c1 [Substance A, anhydro-2-mercapto-4-methyl-5-(3'-chlorophenyl)-1,3,4-thiadiazolium hydroxide]
[3]; [5]
  ED50: 10 mg/kg
[4]; [6]
  ED50: 7 mg/kg
[4]; in words
  activity in counteracting clonic spasms induced by Pentetrazol, compared with Phenobarbital and Phenytoin: more active in counteracting clonic spasms induced by Pentetrazol than is Phenobarbital and above all than is Phenytoin
Maximum electric shock; [7]
  ED50: 23 mg/kg
In vivo; in words
  toxicity compared with Phenobarbital and Phenytoin: markedly less than that of Phenobarbital and Phenytoin
In vivo
  LD50: > 1000 mg/kg

## CN1C(=O)OC(C)(C)C1=O [Trimethadion]
[3]; [5]
  ED50: 260 mg/kg
[3]; tonic cramp test
  times less active than substance A, tonic cramp test: more than 20 times
[4]; [6]
  ED50: 240 mg/kg
[4]; clonic cramp test
  times less active than substance A, clonic cramp test: more than 20 times
Maximum electric shock; [7]
  ED50: 450 mg/kg
In vivo
  LD50: > 1000 mg/kg

## C[n+]1nc([S-])sc1-c1cccc(Cl)c1 [drawing 15]
[1]
  ED50: 3.2 mg/kg
[2]
  LD50: > 1000 mg/kg
